Assays:
EGFR tyrosine kinase = biological target: T1, EGFR tyrosine kinase (Homo sapiens, UniProt P00533); experiment: Test (a) protein tyrosine kinase phosphorylation assay, EGFR; format: biochemical; details: recombinant intracellular fragment, ATP at Km; read-out: IC50 Test (a): Inhibition of EGFR tyrosine kinase protein phosphorylation
T1 construct: Recombinant intracellular fragments of EGFR, erbB2 and erbB4; made in house; host or cells: baculovirus/Sf21 insect cells (cleared lysate used)
Protocol: (§1) A) Protein Tyrosine Kinase Phosphorylation Assays
This test measures the ability of a test compound to inhibit the phosphorylation of a tyrosine containing polypeptide substrate by EGFR tyrosine kinase enzyme.
(§2) Recombinant intracellular fragments of EGFR, erbB2 and erbB4 (accession numbers X00588, X03363 and L07868 respectively) were cloned and expressed in the baculovirus/Sf21 system. Lysates were prepared from these cells by treatment with ice-cold lysis buffer (20 mM N-2-hydroxyethylpiperizine-N′-2-ethanesulfonic acid (HEPES) pH7.5, 150 mM NaCl, 10% glycerol, 1% Triton X-100, 1.5 mM MgCl2, 1 mM ethylene glycol-bis(β-aminoethyl ether) N′,N′,N′,N′-tetraacetic acid (EGTA), plus protease inhibitors and then cleared by centrifugation.
(§3) Constitutive kinase activity of these recombinant proteins was determined by their ability to phosphorylate a synthetic peptide (made up of a random co-polymer of Glutamic Acid, Alanine and Tyrosine in the ratio of 6:3:1). Specifically, Maxisorb™ 96-well immunoplates were coated with synthetic peptide (0.2 μg of peptide in a 200 μl phosphate buffered saline (PBS) solution and incubated at 4° C. overnight). Plates were washed in 50 mM HEPES pH 7.4 at room temperature to remove any excess unbound synthetic peptide. […]
(§4) The immobilised phospho-peptide product of the reaction was detected by immunological methods. […] After further washing, HRP activity in each well of the plate was measured […] using 22′-Azino-di-[3-ethylbenzthiazoline sulfonate (6)] diammonium salt crystals (ABTS™ from Roche) as a substrate.
(§5) Quantification of colour development and thus enzyme activity was achieved by the measurement of absorbance at 405 nm on a Molecular Devices ThermoMax microplate reader. Kinase inhibition for a given compound was expressed as an IC50 value. […] The range of phosphorylation was calculated from the positive (vehicle plus ATP) and negative (vehicle minus ATP) control values.

erbB2 tyrosine kinase = biological target: T2, erbB2 tyrosine kinase (Homo sapiens, UniProt P04626); experiment: Test (a) protein tyrosine kinase phosphorylation assay, erbB2; format: biochemical; details: recombinant intracellular fragment, ATP at Km; read-out: IC50 Test (a): Inhibition of erbB2 tyrosine kinase protein phosphorylation
T2 construct: Recombinant intracellular fragments of EGFR, erbB2 and erbB4; made in house; host or cells: baculovirus/Sf21 insect cells (cleared lysate used)
T2 sequence (P04626 676-1255 limits assumed): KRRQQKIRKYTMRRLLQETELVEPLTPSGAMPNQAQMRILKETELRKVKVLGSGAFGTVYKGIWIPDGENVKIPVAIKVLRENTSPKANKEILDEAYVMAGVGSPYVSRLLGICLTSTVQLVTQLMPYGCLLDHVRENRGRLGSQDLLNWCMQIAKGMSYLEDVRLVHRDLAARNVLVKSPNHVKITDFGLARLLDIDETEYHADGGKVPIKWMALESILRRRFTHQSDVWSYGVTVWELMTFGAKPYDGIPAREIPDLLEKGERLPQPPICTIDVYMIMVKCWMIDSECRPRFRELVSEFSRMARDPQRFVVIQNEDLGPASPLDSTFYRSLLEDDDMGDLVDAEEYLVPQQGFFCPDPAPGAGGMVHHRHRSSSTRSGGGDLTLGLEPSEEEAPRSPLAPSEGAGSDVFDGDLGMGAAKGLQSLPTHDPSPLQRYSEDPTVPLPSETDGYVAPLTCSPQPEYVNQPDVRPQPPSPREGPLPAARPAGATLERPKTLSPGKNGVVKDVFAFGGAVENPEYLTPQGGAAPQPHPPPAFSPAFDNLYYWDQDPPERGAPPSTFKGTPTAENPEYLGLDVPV
Protocol: as §1, §2, §3, §4, §5

[1] = biological target: T3, erbB2 in a MCF7 derived cell line (Clone 24 cells) (Homo sapiens, UniProt P04626); experiment: Test (c) Clone 24 phospho-erbB2 cell assay; format: cell-based; details: Clone 24 cells (MCF7 transfected with full length erbB2), 4 hrs with compound; read-out: IC50 Test (c): Inhibition of erbB2 tyrosine kinase protein phosphorylation
T3 construct: a cell line that overexpresses full length wild type erbB2 protein; expressed in transfected cells; host or cells: MCF7 (breast carcinoma) cells, 'Clone 24'
T3 sequence (P04626 23-1255): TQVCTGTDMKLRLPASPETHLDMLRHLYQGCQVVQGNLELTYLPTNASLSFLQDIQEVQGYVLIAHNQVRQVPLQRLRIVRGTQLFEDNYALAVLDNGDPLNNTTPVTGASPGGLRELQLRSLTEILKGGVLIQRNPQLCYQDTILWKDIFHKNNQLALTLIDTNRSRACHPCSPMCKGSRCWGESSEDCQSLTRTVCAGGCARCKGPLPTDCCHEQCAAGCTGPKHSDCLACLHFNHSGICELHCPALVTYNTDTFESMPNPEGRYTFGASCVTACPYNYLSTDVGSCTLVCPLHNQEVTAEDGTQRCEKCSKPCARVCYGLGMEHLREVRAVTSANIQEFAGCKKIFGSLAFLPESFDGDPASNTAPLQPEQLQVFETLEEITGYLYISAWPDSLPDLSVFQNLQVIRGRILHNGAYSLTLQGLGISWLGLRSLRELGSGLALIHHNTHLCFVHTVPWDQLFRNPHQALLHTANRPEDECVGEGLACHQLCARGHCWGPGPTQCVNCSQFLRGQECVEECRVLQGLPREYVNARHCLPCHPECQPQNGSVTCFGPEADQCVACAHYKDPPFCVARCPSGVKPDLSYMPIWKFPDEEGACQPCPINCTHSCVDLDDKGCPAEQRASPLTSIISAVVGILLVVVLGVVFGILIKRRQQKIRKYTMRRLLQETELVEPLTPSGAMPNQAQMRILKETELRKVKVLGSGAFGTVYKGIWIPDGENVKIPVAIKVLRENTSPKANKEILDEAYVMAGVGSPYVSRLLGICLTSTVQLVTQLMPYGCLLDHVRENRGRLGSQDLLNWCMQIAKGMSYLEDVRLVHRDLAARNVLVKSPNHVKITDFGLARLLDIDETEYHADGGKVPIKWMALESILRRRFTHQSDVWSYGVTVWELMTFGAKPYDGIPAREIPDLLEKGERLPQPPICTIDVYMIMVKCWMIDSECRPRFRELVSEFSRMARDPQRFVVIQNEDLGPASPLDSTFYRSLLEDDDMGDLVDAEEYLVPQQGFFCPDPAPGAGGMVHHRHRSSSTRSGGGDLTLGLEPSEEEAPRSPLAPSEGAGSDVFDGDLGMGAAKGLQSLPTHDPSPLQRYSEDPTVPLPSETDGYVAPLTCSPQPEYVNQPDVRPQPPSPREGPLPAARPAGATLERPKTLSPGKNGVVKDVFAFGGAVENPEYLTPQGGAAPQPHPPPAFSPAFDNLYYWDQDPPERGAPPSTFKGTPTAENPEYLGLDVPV
Protocol: c) Clone 24 phospho-erbB2 Cell Assay
This immunofluorescence end point assay measures the ability of a test compound to inhibit the phosphorylation of erbB2 in a MCF7 (breast carcinoma) derived cell line which was generated by transfecting MCF7 cells with the full length erbB2 gene using standard methods to give a cell line that overexpresses full length wild type erbB2 protein (hereinafter ‘Clone 24’ cells).
Clone 24 cells were cultured in Growth Medium (phenol red free Dulbecco's modified Eagle's medium (DMEM) containing 10% foetal bovine serum, 2 mM glutamine and 1.2 mg/ml G418) in a 7.5% CO2 air incubator at 37° C. Cells were harvested from T75 stock flasks by washing once in PBS phosphate buffered saline, pH7.4, Gibco No. 10010-015) and harvested using 2 mls of Trypsin (1.25 mg/ml)/ethylaminediaminetetraacetic acid (EDTA) (0.8 mg/ml) solution. The cells were resuspended in Growth Medium. Cell density was measured using a haemocytometer and viability was calculated using Trypan Blue solution before being further diluted in Growth Medium and seeded at a density of 1×10^4 cells per well (in 100 ul) into clear bottomed 96 well plates (Packard, No. 6005182).
3 days later, Growth Medium was removed from the wells and replaced with 100 ul Assay Medium (phenol red free DMEM, 2 mM glutamine, 1.2 mg/ml G418) either with or without erbB inhibitor compound. Plates were returned to the incubator for 4 hrs and then 20 μl of 20% formaldehyde solution in PBS was added to each well and the plate was left at room temperature for 30 minutes. This fixative solution was removed with a multichannel pipette, 100 μl of PBS was added to each well and then removed with a multichannel pipette and then 50 μl PBS was added to each well. Plates were then sealed and stored for up to 2 weeks at 4° C.
Immunostaining was performed at room temperature. […]
The Fluorescence signal is each well was measured using an Acumen Explorer Instrument (Acumen Bioscience Ltd.), a plate reader that can be used to rapidly quantitate features of images generated by laser-scanning. […]

T1 sequence (P00533 669-1210 limits assumed): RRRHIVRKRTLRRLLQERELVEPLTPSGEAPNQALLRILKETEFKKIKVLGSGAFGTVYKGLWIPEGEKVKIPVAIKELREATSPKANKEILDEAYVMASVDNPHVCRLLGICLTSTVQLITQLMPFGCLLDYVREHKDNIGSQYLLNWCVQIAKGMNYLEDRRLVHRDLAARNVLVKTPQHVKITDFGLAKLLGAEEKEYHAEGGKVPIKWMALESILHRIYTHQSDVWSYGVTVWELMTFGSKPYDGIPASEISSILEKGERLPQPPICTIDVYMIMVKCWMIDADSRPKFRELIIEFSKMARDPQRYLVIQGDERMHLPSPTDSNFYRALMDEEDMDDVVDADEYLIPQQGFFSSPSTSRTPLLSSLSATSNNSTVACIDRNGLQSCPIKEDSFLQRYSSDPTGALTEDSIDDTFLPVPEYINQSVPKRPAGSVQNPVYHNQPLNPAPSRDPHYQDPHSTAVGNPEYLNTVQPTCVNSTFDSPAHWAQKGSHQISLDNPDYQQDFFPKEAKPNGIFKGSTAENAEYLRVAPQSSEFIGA

| IC50 (EGFR tyrosine kinase) [µM] | IC50 (erbB2 tyrosine kinase) [µM] | IC50 [1] [µM] | Structure (SMILES) |
| --- | --- | --- | --- |
| 0.039 | 0.002 | 0.21 | CN(C)CC(=O)N1CCC(Oc2ccc3ncnc(Nc4ccc(OCc5ccccn5)c(Cl)c4)c3c2)CC1 [Example 8] |
| 0.021 | 0.007 | 0.15 | CN(C)CC(=O)N1CCC(Oc2ccc3ncnc(Nc4ccc(OCc5cnccn5)c(Cl)c4)c3c2)CC1 [Example 9, N-[3-chloro-4-(pyrazin-2-ylmethoxy)phenyl]-6-({1-[(dimethylamino)acetyl]piperidin-4-yl}oxy)quinazolin-4-amine] |
| 0.213 | 0.002 | 0.004 | CS(=O)(=O)N1CCC(COc2ccc3ncnc(Nc4ccc(OCc5ccccn5)c(Cl)c4)c3c2)C1 (stereo not drawn) [Example 14, N-[3-Chloro-4-(pyridin-2-ylmethoxy)phenyl]-6-{[1-(methylsulfonyl)pyrrolidin-3-yl]methoxy}quinazolin-4-amine] |

From patent US20070032508A1, “Quinazoline derivatives as tyrosine kinase inhibitors” (priority 2003, published 2007)
